According to patent US10421740B2, “Pesticidally active heterocyclic derivatives with sulphur containing substituents” (SYNGENTA PARTICIPATIONS AG, priority 2016, dated 2019):

Columns and labels:
Format in all cases: in vivo
[1] = tested on: Bemisia tabaci (Cotton White Fly); assay: Activity against Bemisia tabaci (cotton white fly): feeding/contact activity; settings: foliar, 144 h, application rate 200 ppm, cotton leaf discs, adult white flies, 6 days after incubation
Experimental: Example B1: Activity Against Bemisia tabaci (Cotton White Fly): Feeding/Contact Activity
Cotton leaf discs were placed on agar in 24-well microtiter plates and sprayed with aqueous test solutions prepared from 10'000 ppm DMSO stock solutions. After drying the leaf discs were infested with adult white flies. The samples were checked for mortality 6 days after incubation.

[2] = tested on: Diabrotica balteata (Corn Root Worm); assay: Activity against Diabrotica balteata (corn root worm); settings: 96 h, application rate 200 ppm, maize sprouts, L2 larvae, 4 days after infestation, read-out: effect in at least one of the two categories (mortality or growth inhibition)
Experimental: Example B2: Activity Against Diabrotica balteata (Corn Root Worm)
Maize sprouts placed onto an agar layer in 24-well microtiter plates were treated with aqueous test solutions prepared from 10'000 ppm DMSO stock solutions by spraying. After drying, the plates were infested with L2 larvae (6 to 10 per well). The samples were assessed for mortality and growth inhibition in comparison to untreated samples 4 days after infestation.

[3] = tested on: Myzus persicae (Green Peach Aphid); assay: Activity against Myzus persicae (green peach aphid): feeding/contact activity; settings: foliar, 144 h, application rate 200 ppm, sunflower leaf discs, aphid population of mixed ages, 6 days after infestation
Experimental: Example B3: Activity Against Myzus persicae (Green Peach Aphid): Feeding/Contact Activity
Sunflower leaf discs were placed onto agar in a 24-well microtiter plate and sprayed with aqueous test solutions prepared from 10'000 ppm DMSO stock solutions. After drying, the leaf discs were infested with an aphid population of mixed ages. The samples were assessed for mortality 6 days after infestation.

[4] = tested on: Myzus persicae (Green Peach Aphid); assay: Activity against Myzus persicae (green peach aphid): systemic activity; settings: 144 h, test rate 24 ppm, roots of pea seedlings in test solution, 6 days
Experimental: Example B4: Activity Against Myzus persicae (Green Peach Aphid): Systemic Activity
Roots of pea seedlings infested with an aphid population of mixed ages were placed directly into aqueous test solutions prepared from 10'000 DMSO stock solutions. The samples were assessed for mortality 6 days after placing seedlings into test solutions.

[5] = tested on: Plutella xylostella (Diamond Back Moth); assay: Activity against Plutella xylostella (diamond back moth); settings: 120 h, application rate 200 ppm, artificial diet, L2 larvae, 5 days after infestation, read-out: effect in at least one of the two categories (mortality or growth inhibition)
Experimental: Example B5: Activity Against Plutella xylostella (Diamond Back Moth)
24-well microtiter plates with artificial diet were treated with aqueous test solutions prepared from 10'000 ppm DMSO stock solutions by pipetting. After drying, the plates were infested with L2 larvae (10 to 15 per well). The samples were assessed for mortality and growth inhibition in comparison to untreated samples 5 days after infestation.

[6] = tested on: Spodoptera littoralis (Egyptian Cotton Leaf Worm); assay: Activity against Spodoptera littoralis (Egyptian cotton leaf worm), uptake via lettuce roots; settings: 144 h, test rate 12.5 ppm, lettuce grown on treated agar, eggs, 6 days after infestation, read-out: effect in at least one of the three categories (mortality, anti-feeding, or growth inhibition)
Excerpt: Example B6: Activity Against Spodoptera littoralis (Egyptian Cotton Leaf Worm)
Test compounds were applied by pipette from 10'000 ppm DMSO stock solutions into 24-well plates and mixed with agar. Lettuce seeds were placed onto the agar and the multi well plate was closed by another plate which contained also agar. After 7 days the compound was absorbed by the roots and the lettuce grew into the lid plate. The lettuce leaves were then cut off into the lid plate. Spodoptera eggs were pipetted through a plastic stencil onto a humid gel blotting paper and the lid plate was closed with it. The samples were assessed for mortality, anti-feedant effect and growth inhibition in comparison to untreated samples 6 days after infestation.

[7] = tested on: Spodoptera littoralis (Egyptian Cotton Leaf Worm); assay: Activity against Spodoptera littoralis (Egyptian cotton leaf worm), cotton leaf disc spray; settings: foliar, 72 h, application rate 200 ppm, cotton leaf discs, L1 larvae, 3 days after infestation
Experimental: Example B8: Activity Against Spodoptera littoralis (Egyptian Cotton Leaf Worm)
Cotton leaf discs were placed onto agar in 24-well microtiter plates and sprayed with aqueous test solutions prepared from 10'000 ppm DMSO stock solutions. After drying the leaf discs were infested with five L1 larvae. The samples were assessed for mortality, anti-feeding effect, and growth inhibition in comparison to untreated samples 3 days after infestation. Control of Spodoptera littoralis by a test sample is given when at least one of the categories mortality, anti-feedant effect, and growth inhibition is higher than the untreated sample.

[8] = tested on: Anopheles stephensi (Indian Malaria Mosquito); assay: Activity against Anopheles stephensi (Indian malaria mosquito); settings: 200 ppm in ethanol, dry deposit; adult females; after 48 h and/or 24 h
Experimental: Example B10: Activity Against Anopheles stephensi (Indian Malaria Mosquito)
Test solutions, at an application rate of 200 ppm in ethanol, were applied to 12 well tissue culture plates. Once the deposits were dry, five, two to five day old adult female Anopheles stephensi were added to each well, and sustained with a 10% sucrose solution in a cotton wool plug. Assessment of knockdown was made one hour after introduction, and mortality was assessed at 24 and 48 hours after introduction.

[9] = tested on: Euschistus heros (Neotropical Brown Stink Bug); assay: Activity against Euschistus heros (neotropical brown stink bug); settings: 120 h, application rate 200 ppm, soybean leaves, N2 nymphs, 5 days after infestation, read-out: effect in at least one of the two categories (mortality or growth inhibition)
Experimental: Example B9: Activity Against Euschistus heros (Neotropical Brown Stink Bug)
Soybean leaves on agar in 24-well microtiter plates were sprayed with aqueous test solutions prepared from 10'000 ppm DMSO stock solutions. After drying the leaves were infested with N2 nymphs. The samples were assessed for mortality and growth inhibition in comparison to untreated samples 5 days after infestation.

Compound | mortality at 200 ppm [1] | percent effect (mortality or growth inhibition) at 200 ppm [2] | mortality at 200 ppm [3] | mortality at 24 ppm [4] | percent control (mortality or growth inhibition) at 200 ppm [5] | percent with effect (mortality, anti-feeding or growth inhibition) at 12.5 ppm [6] | percent control (mortality, anti-feedant effect or growth inhibition) at 200 ppm [7] | control of Anopheles stephensi [8] | effect (mortality or growth inhibition) at 200 ppm [9]
CCS(=O)(=O)c1cc2c(cc1-c1nnc(-c3cc(C(F)(F)F)ccn3)n1C)nc(C(F)(F)F)n2C [Compound A2, 6-ethylsulfonyl-1-methyl-5-[4-methyl-5-[4-(trifluoromethyl)-2-pyridyl]-1,2,4-triazol-3-yl]-2-(trifluoromethyl)benzimidazole] | ≥ 80% | ≥ 80% | ≥ 80% | ≥ 80% | ≥ 80% | ≥ 80% | ≥ 80% | at least 80% | –
CCS(=O)(=O)c1cc2sc(C(F)(F)F)nc2cc1-c1nnc(-c2cc(C(F)(F)F)ccn2)n1C [Compound A8, 6-ethylsulfonyl-5-[4-methyl-5-[4-(trifluoromethyl)-2-pyridyl]-1,2,4-triazol-3-yl]-2-(trifluoromethyl)-1,3-benzothiazole] | ≥ 80% | ≥ 80% | ≥ 80% | – | ≥ 80% | ≥ 80% | ≥ 80% | – | ≥ 80%
